Reference: patent US6770596B1, “Fused tricyclic compounds, process for their preparation, and herbicidal compositions containing them” (Ishihara Sangyo Kaisha Ltd., priority 2002, dated 2004)

Assays:
Format in all cases: in vivo
[1] = test system: redroot pigweed (Amaranthus retroflexus, AMR); assay: Pre-emerge test, redroot pigweed; conditions: 250 g ai/ha, 14 days after application, rating scale 0-100 (0 no damage, 100 complete death)
Outline: (§1)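 Read-out is a visual 0–100 phytotoxicity rating taken 14 days after treatment, where 100 means all plants dead. Compounds were applied pre-emergence in acetone by track sprayer at rates from 8 to 1000 g ai/ha onto pots sown the previous day.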

[2] = test system: velvetleaf (Abutilon theophrasti, ABT); assay: Pre-emerge test, velvetleaf; conditions: 250 g ai/ha, 14 days after application, rating scale 0-100 (0 no damage, 100 complete death)
Outline: as §1

[3] = test system: sicklepod (Cassia obtusifolia, CAO); assay: Pre-emerge test, sicklepod; conditions: 250 g ai/ha, 14 days after application, rating scale 0-100 (0 no damage, 100 complete death)
Outline: as §1

[4] = test system: ivyleaf morningglory (Ipomoea hederacea, IPH); assay: Pre-emerge test, ivyleaf morningglory; conditions: 250 g ai/ha, 14 days after application, rating scale 0-100 (0 no damage, 100 complete death)
Outline: as §1

[5] = test system: lambsquarters (Chenopodium album, CHA); assay: Pre-emerge test, lambsquarters; conditions: 250 g ai/ha, 14 days after application, rating scale 0-100 (0 no damage, 100 complete death)
Outline: as §1

[6] = test system: common ragweed (Ambrosia artemisiifolia L., AML); assay: Pre-emerge test, common ragweed; conditions: 250 g ai/ha, 14 days after application, rating scale 0-100 (0 no damage, 100 complete death)
Outline: as §1

[7] = test system: cocklebur (Xanthium strumariunt, XAS); assay: Pre-emerge test, cocklebur; conditions: 250 g ai/ha, 14 days after application, rating scale 0-100 (0 no damage, 100 complete death)
Outline: as §1

[8] = test system: green foxtail (Setaria viridis, SEV); assay: Pre-emerge test, green foxtail; conditions: 250 g ai/ha, 14 days after application, rating scale 0-100 (0 no damage, 100 complete death)
Outline: as §1

[9] = test system: barnyardgrass (Echinachloa crus-galli, ECC); assay: Pre-emerge test, barnyardgrass; conditions: 250 g ai/ha, 14 days after application, rating scale 0-100 (0 no damage, 100 complete death)
Outline: as §1

[10] = test system: johnsongrass (Sorghum halepense, SOH); assay: Pre-emerge test, johnsongrass; conditions: 250 g ai/ha, 14 days after application, rating scale 0-100 (0 no damage, 100 complete death)
Outline: as §1

[11] = test system: large crabgrass (Digitaria sanguinalis, DIS); assay: Pre-emerge test, large crabgrass; conditions: 250 g ai/ha, 14 days after application, rating scale 0-100 (0 no damage, 100 complete death)
Outline: as §1

[12] = test system: field corn (Zea mays L., var. Dekalb 535, CORN); assay: Pre-emerge test, crop damage field corn
Outline: (§2)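 Seeds sown in sandy loam in 10 cm pots one day before pre-emergence spraying of acetone-dissolved compounds at 8–1000 g ai/ha (187 l/ha, track sprayer), greenhouse. Phytotoxicity rated visually 14 days after application on a 0–100 scale (0 no damage, 100 complete death).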

[13] = test system: soybean (Glycine max L., var. Pella 86, SOY); assay: Pre-emerge test, crop damage soybean
Outline: as §2

[14] = test system: upland rice (Oryza sp., var.Tebonnet, RICE); assay: Pre-emerge test, crop damage upland rice
Outline: as §2

[15] = test system: wheat (Triticum aestivum); assay: Pre-emerge test, crop damage wheat
Outline: as §2

[16] = test system: redroot pigweed (Amaranthus retroflexus, AMR); assay: Post-emerge test, redroot pigweed; conditions: 250 g ai/ha, 14 days after application, rating scale 0-100 (0 no damage, 100 complete death)
Outline: (§3)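 Plants grow in sandy loam pots for 8-21 days, then receive an acetone spray (187 l/ha, 0.25% v/v non-ionic surfactant) at 8-1000 g ai/ha. Plant damage is rated 0-100 at 14 days.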

[17] = test system: velvetleaf (Abutilon theophrasti, ABT); assay: Post-emerge test, velvetleaf; conditions: 250 g ai/ha, 14 days after application, rating scale 0-100 (0 no damage, 100 complete death)
Outline: as §3

[18] = test system: sicklepod (Cassia obtusifolia, CAO); assay: Post-emerge test, sicklepod; conditions: 250 g ai/ha, 14 days after application, rating scale 0-100 (0 no damage, 100 complete death)
Outline: as §3

[19] = test system: ivyleaf morningglory (Ipomoea hederacea, IPH); assay: Post-emerge test, ivyleaf morningglory; conditions: 250 g ai/ha, 14 days after application, rating scale 0-100 (0 no damage, 100 complete death)
Outline: as §3

[20] = test system: lambsquarters (Chenopodium album, CHA); assay: Post-emerge test, lambsquarters; conditions: 250 g ai/ha, 14 days after application, rating scale 0-100 (0 no damage, 100 complete death)
Outline: as §3

[21] = test system: common ragweed (Ambrosia artemisiifolia L., AML); assay: Post-emerge test, common ragweed; conditions: 250 g ai/ha, 14 days after application, rating scale 0-100 (0 no damage, 100 complete death)
Outline: as §3

[22] = test system: cocklebur (Xanthium strumariunt, XAS); assay: Post-emerge test, cocklebur; conditions: 250 g ai/ha, 14 days after application, rating scale 0-100 (0 no damage, 100 complete death)
Outline: as §3

[23] = test system: green foxtail (Setaria viridis, SEV); assay: Post-emerge test, green foxtail; conditions: 250 g ai/ha, 14 days after application, rating scale 0-100 (0 no damage, 100 complete death)
Outline: as §3

[24] = test system: barnyardgrass (Echinachloa crus-galli, ECC); assay: Post-emerge test, barnyardgrass; conditions: 250 g ai/ha, 14 days after application, rating scale 0-100 (0 no damage, 100 complete death)
Outline: as §3

[25] = test system: johnsongrass (Sorghum halepense, SOH); assay: Post-emerge test, johnsongrass; conditions: 250 g ai/ha, 14 days after application, rating scale 0-100 (0 no damage, 100 complete death)
Outline: as §3

[26] = test system: large crabgrass (Digitaria sanguinalis, DIS); assay: Post-emerge test, large crabgrass; conditions: 250 g ai/ha, 14 days after application, rating scale 0-100 (0 no damage, 100 complete death)
Outline: as §3

[27] = test system: field corn (Zea mays L., var. Dekalb 535, CORN); assay: Post-emerge test, crop damage field corn
Outline: as §3

[28] = test system: soybean (Glycine max L., var. Pella 86, SOY); assay: Post-emerge test, crop damage soybean
Outline: as §3

[29] = test system: upland rice (Oryza sp., var.Tebonnet, RICE); assay: Post-emerge test, crop damage upland rice
Outline: as §3

[30] = test system: wheat (Triticum aestivum); assay: Post-emerge test, crop damage wheat
Outline: as §3

[31] = pre-emerge, 250 g ai/ha, 14 days after application, rating scale 0-100 (0 no damage, 100 complete death)
[32] = post-emerge, 250 g ai/ha, 14 days after application, rating scale 0-100 (0 no damage, 100 complete death)
[33] = var. Dekalb 535, Zea mays (field corn), in vivo, 14 days
[34] = var. Pella 86, Glycine max (soybean), in vivo, 14 days
[35] = var. Tebonnet, Oryza sp. (upland rice), in vivo, 14 days
[36] = Triticum aestivum (wheat), in vivo, 14 days

Row | Compound | Pre-emerge Herbicidal Activity AMR (phytotoxicity rating) [1] | Pre-emerge Herbicidal Activity ABT (phytotoxicity rating) [2] | Pre-emerge Herbicidal Activity CAO (phytotoxicity rating) [3] | Pre-emerge Herbicidal Activity IPH (phytotoxicity rating) [4] | Pre-emerge Herbicidal Activity CHA (phytotoxicity rating) [5] | Pre-emerge Herbicidal Activity AML (phytotoxicity rating) [6] | Pre-emerge Herbicidal Activity XAS (phytotoxicity rating) [7] | Pre-emerge Herbicidal Activity SEV (phytotoxicity rating) [8] | Pre-emerge Herbicidal Activity ECC (phytotoxicity rating) [9] | Pre-emerge Herbicidal Activity SOH (phytotoxicity rating) [10] | Pre-emerge Herbicidal Activity DIS (phytotoxicity rating) [11] | Post-emerge Herbicidal Activity AMR (phytotoxicity rating) [16] | Post-emerge Herbicidal Activity ABT (phytotoxicity rating) [17] | Post-emerge Herbicidal Activity CAO (phytotoxicity rating) [18] | Post-emerge Herbicidal Activity IPH (phytotoxicity rating) [19] | Post-emerge Herbicidal Activity CHA (phytotoxicity rating) [20] | Post-emerge Herbicidal Activity AML (phytotoxicity rating) [21] | Post-emerge Herbicidal Activity XAS (phytotoxicity rating) [22] | Post-emerge Herbicidal Activity SEV (phytotoxicity rating) [23] | Post-emerge Herbicidal Activity ECC (phytotoxicity rating) [24] | also measured
1 | CCC1C(=O)Nc2c(-c3ncc(C(F)(F)F)cc3Cl)c(F)cc3c2N1C(=O)CO3 (stereo not drawn) [1-66] | 100 | 100 | 98 | 100 | 100 | 100 | 50 | 100 | 100 | 100 | 100 | 100 | 100 | 75 | 100 | 100 | 80 | 100 | 98 | 100 | Pre-emerge crop damage CORN (phytotoxicity rating) [12, 31]: 95; Pre-emerge crop damage SOY (phytotoxicity rating) [13, 31]: 35; Pre-emerge crop damage RICE (phytotoxicity rating) [14, 31]: 85; Pre-emerge crop damage WHEAT (phytotoxicity rating) [15, 31]: 50; Post-emerge Herbicidal Activity SOH (phytotoxicity rating) [25]: 75; Post-emerge Herbicidal Activity DIS (phytotoxicity rating) [26]: 95; Post-emerge crop damage CORN (phytotoxicity rating) [27, 32]: 10; Post-emerge crop damage SOY (phytotoxicity rating) [28, 32]: 100; Post-emerge crop damage RICE (phytotoxicity rating) [29, 32]: 100; Post-emerge crop damage WHEAT (phytotoxicity rating) [30, 32]: 30
2 | CC1C(=O)Nc2c(-c3nn(C)c(OC(F)F)c3Cl)c(F)cc3c2N1C(=O)CO3 (stereo not drawn) [1-26, 8-[4-Chloro-5-(difluoromethoxy)-1-methyl-1H-pyrazole-3-yl)-9-fluoro-5-methyl-5H-pyrazino[1,2,3-de]-1,4-benzoxazine-3,6(2H, 7H)-dione] | 100 | 100 | 99 | 100 | 100 | 100 | 99 | 100 | 100 | 100 | 100 | 100 | 100 | 100 | 100 | 100 | 99 | 100 | 100 | 99 | Pre-emerge crop damage CORN (phytotoxicity rating) [12, 33]: 100; Pre-emerge crop damage SOY (phytotoxicity rating) [13, 34]: 98; Pre-emerge crop damage RICE (phytotoxicity rating) [14, 35]: 100; Pre-emerge crop damage WHEAT (phytotoxicity rating) [15, 36]: 98; Post-emerge Herbicidal Activity SOH (phytotoxicity rating) [25]: 80; Post-emerge Herbicidal Activity DIS (phytotoxicity rating) [26]: 40; Post-emerge crop damage CORN (phytotoxicity rating) [27, 33]: 40; Post-emerge crop damage SOY (phytotoxicity rating) [28, 34]: 100; Post-emerge crop damage RICE (phytotoxicity rating) [29, 35]: 90; Post-emerge crop damage WHEAT (phytotoxicity rating) [30, 36]: 60
3 | CC1Oc2cc(F)c(-c3nn(C)c(C(F)(F)F)c3Cl)c3c2N(C1=O)C(C)C(=O)N3 (mixture of isomers) [1-50] | 100 | 100 | 99 | 90 | 100 | 100 | 75 | 100 | 99 | 100 | 99 | 100 | 100 | 75 | 100 | 100 | 70 | 100 | 70 | 99 | Pre-emerge crop damage CORN (phytotoxicity rating) [12, 31]: 85; Pre-emerge crop damage SOY (phytotoxicity rating) [13, 31]: 60; Pre-emerge crop damage RICE (phytotoxicity rating) [14, 31]: 50; Pre-emerge crop damage WHEAT (phytotoxicity rating) [15, 31]: 25; Post-emerge Herbicidal Activity SOH (phytotoxicity rating) [25]: 55; Post-emerge Herbicidal Activity DIS (phytotoxicity rating) [26]: 70; Post-emerge crop damage CORN (phytotoxicity rating) [27, 32]: 20; Post-emerge crop damage SOY (phytotoxicity rating) [28, 32]: 75; Post-emerge crop damage RICE (phytotoxicity rating) [29, 32]: 65; Post-emerge crop damage WHEAT (phytotoxicity rating) [30, 32]: 35
4 | C[C@H]1Oc2cc(F)c(-c3nn(C)c(C(F)(F)F)c3Cl)c3c2N(CC(=O)N3)C1=O [1-48, 8-[4-Chloro-1-methyl-5-(trifluoromethyl)-1H-pyrazol-3-yl]-9-fluoro-2-R-methyl-5H-pyrazino[1,2,3-de]-1,4-benzoxazine-3,6(2H, 7H)-dione] | 100 | 100 | 100 | 100 | 100 | 99 | 60 | 100 | 100 | 100 | 100 | 100 | 100 | 65 | 100 | 100 | 80 | 100 | 98 | 95 | Pre-emerge crop damage CORN (phytotoxicity rating) [12, 33]: 70; Pre-emerge crop damage SOY (phytotoxicity rating) [13, 34]: 40; Pre-emerge crop damage RICE (phytotoxicity rating) [14, 35]: 55; Pre-emerge crop damage WHEAT (phytotoxicity rating) [15, 36]: 25; Post-emerge Herbicidal Activity SOH (phytotoxicity rating) [25]: 30; Post-emerge Herbicidal Activity DIS (phytotoxicity rating) [26]: 50; Post-emerge crop damage CORN (phytotoxicity rating) [27, 33]: 10; Post-emerge crop damage SOY (phytotoxicity rating) [28, 34]: 65; Post-emerge crop damage RICE (phytotoxicity rating) [29, 35]: 60; Post-emerge crop damage WHEAT (phytotoxicity rating) [30, 36]: 0
